Assay results as given in PubChem BioAssay (NCI).
Where “and” joins values, the source holds several entries; their conditions need not be identical. Equal entries are not always repeated.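 Each compound was tested at five concentrations against cells in 96-well plates for 48 hours. The concentration for 50% growth inhibition is given as GI50. At the TGI there is no net growth.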

Experiments:
Assay in all cases: DTP human tumour cell line panel, 48 h
SK-MEL-28 melanoma = tested on: SK-MEL-28 melanoma
786-0 renal = tested on: 786-0 renal
HCT-15 colon = tested on: HCT-15 colon
NCI-H226 lung = tested on: NCI-H226 lung
IGROV1 ovarian = tested on: IGROV1 ovarian
NCI-H522 lung = tested on: NCI-H522 lung
OVCAR-3 ovarian = tested on: OVCAR-3 ovarian
UO-31 renal = tested on: UO-31 renal
ACHN renal = tested on: ACHN renal
U251 CNS = tested on: U251 CNS

| SMILES | TGI (SK-MEL-28 melanoma) | TGI (786-0 renal) | TGI (HCT-15 colon) | TGI (NCI-H226 lung) | TGI (IGROV1 ovarian) [µM] | TGI (NCI-H522 lung) | TGI (OVCAR-3 ovarian) [µM] | TGI (UO-31 renal) | TGI (ACHN renal) | TGI (U251 CNS) | GI50 (SK-MEL-28 melanoma) [µM] | GI50 (786-0 renal) [µM] | GI50 (HCT-15 colon) [µM] | GI50 (NCI-H226 lung) [µM] | GI50 (IGROV1 ovarian) [µM] | GI50 (NCI-H522 lung) [µM] | GI50 (OVCAR-3 ovarian) [µM] | GI50 (UO-31 renal) [µM] | GI50 (ACHN renal) [µM] | GI50 (U251 CNS) [µM] |
| --- | --- | --- | --- | --- | --- | --- | --- | --- | --- | --- | --- | --- | --- | --- | --- | --- | --- | --- | --- | --- |
| CC(C)(C)n1nc(C2CC2)cc1NC(=O)Nc1ccc(Cl)cc1 | > 100 µM | > 100 µM | > 100 µM | > 100 µM | > 100 | > 100 µM | > 100 | > 100 µM | > 100 µM | > 100 µM | – | – | – | – | – | – | – | – | – | – |
| NNC(=O)C(O)C(O)C(O)CO (stereo not drawn) | > 100 µM | > 100 µM | > 100 µM | > 100 µM | > 100 | > 100 µM | > 100 | > 100 µM | > 100 µM | > 100 µM | – | – | – | – | – | – | – | – | – | – |
| CC12CCC(=O)N1c1cc([N+](=O)[O-])ccc1N2 (stereo not drawn) | > 100 µM | > 100 µM | > 100 µM | > 100 µM | > 100 | > 100 µM | > 100 | > 100 µM | > 100 µM | > 100 µM | – | – | – | – | – | – | – | – | – | – |
| COc1cc(/C=C/C(=O)c2ccc(F)cc2)ccc1OCCCCOc1cc2c(cc1OC)C(=O)N1CCCC1C=N2 (stereo not drawn) | > 100 µM | 7.74 µM | > 28.2 µM | 1.7 µM | 3.59 | 4.35 µM | 2 | – | > 20.5 µM | 7.85 µM | 15.3 | 0.989 | 1.07 | 0.683 | 1.83 | 1.64 | 0.808 | 0.891 | 1.07 | 0.704 |
| CN(C)C(=O)C(NCCO)c1ccccc1 (stereo not drawn) | > 100 µM | > 100 µM | > 100 µM | > 100 µM | > 100 | > 100 µM | > 100 | > 100 µM | > 100 µM | > 100 µM | – | – | – | – | – | – | – | – | – | – |
| C=C(C)[C@@H]1CC[C@]2(C(=O)N3CCN(C)CC3)CC[C@]3(C)[C@H](CC[C@@H]4[C@@]5(C)C/C(=C/c6ccncc6)[C@H](O)C(C)(C)[C@@H]5CC[C@]43C)[C@@H]12 | 22.2 µM | 13.3 µM | 12.2 µM | 28.9 µM | 37.7 | 25 µM | 17.2 | 21 µM | > 100 µM | 19.6 µM | 7.46 | 2.71 | 2.65 | 7.01 | 6.62 | 5.24 | 4.82 | 5.37 | 6.6 | 5.64 |
| Cc1cc(Cl)ccc1NC(=O)C1C(=O)C(=O)N(c2ccc(Cl)cc2C)C1=O (stereo not drawn) | > 100 µM | > 100 µM | > 100 µM | > 100 µM | > 100 | > 100 µM | > 100 | > 100 µM | > 100 µM | > 100 µM | – | – | – | – | – | – | – | – | – | – |
| CCN1C(=O)/C(=C\c2coc3ccccc3c2=O)SC1=S | > 100 µM | > 100 µM | > 100 µM | > 100 µM | > 100 | > 100 µM | > 100 | > 100 µM | > 100 µM | > 100 µM | – | – | – | – | – | – | – | – | – | – |
| COc1cccc(-c2cc(C(=O)Nc3ccc(Cl)cc3)nc(N)n2)c1 | > 100 µM | > 100 µM | > 100 µM | > 100 µM | > 100 | > 100 µM | > 100 | > 100 µM | > 100 µM | > 100 µM | – | – | – | – | – | – | – | – | – | – |
| CCOc1cccc2sc(N)nc12 | > 100 µM | > 100 µM | > 100 µM | > 100 µM | > 100 | > 100 µM | > 100 | > 100 µM | > 100 µM | > 100 µM | – | – | – | – | – | – | – | – | – | – |
| O=C1c2cccc3c([N+](=O)[O-])ccc(c23)C(=O)N1CCCCl | > 10 µM | > 10 µM | > 10 µM | > 10 µM | 5 | > 10 µM | 4.72 | > 10 µM | > 10 µM | > 10 µM | 3.84 | > 10 | 5.01 | 2.83 | 1.9 | 4.34 | 2.2 | > 10 | > 10 | > 10 |
| C/C(=N\N)C(CN1CCCCC1)C(c1ccccc1)c1c(O)c2ccccc2oc1=O (stereo not drawn) | > 100 µM | > 100 µM | > 100 µM | > 100 µM | > 100 | > 100 µM | > 100 | > 100 µM | > 100 µM | > 100 µM | – | – | – | – | – | – | – | – | – | – |
| CC[C@@]1(O)C(=O)OCc2c1cc1n(c2=O)Cc2cc3c([N+](=O)[O-])c(O)ccc3nc2-1 | 35.5 µM | 0.432 µM | > 100 µM | – | 17.3 | 3.07 µM | 8.26 | 2.3 µM | 0.611 µM | 1.22 µM | 2.75 | 0.0477 | 2.71 | 1.29 | 1.04 | 0.132 | 1.6 | 0.303 | 0.051 | 0.0405 |
| CS(=O)(=O)OCCCCOS(C)(=O)=O | 232 µM and > 1000 µM | 250 µM and > 1000 µM | 236 µM and > 1000 µM | 250 µM and > 1000 µM | > 1000 | 250 µM and > 1000 µM | > 1000 | 250 µM and > 1000 µM | 250 µM and > 1000 µM | 238 µM and > 1000 µM | 980 | 539 | > 903 | > 966 | 981 | 466 | > 1000 | > 886 | 354 | 469 |
